Test results: patent US20260159561A1 (MyNeuroCure Oy, priority 2017, published 2026)

B1: MANF: mesencephalic astrocyte-derived neurotrophic factor; mature human MANF, SEQ ID NO: 9, 158 amino acids (protein, listed as Homo sapiens)
chain: LRPGDCEVCISYLGRFYQDLKDRDVTFSPATIENELIKFCREARGKENRLCYYIGATDDAATKIINEVSKPLAHHIPVEKICEKLKKKDSQICELKYDKQIDLSTVDLKKLRVKELKKILDDWGETCKGCAEKSDYIRKINELMPKYAPKAASARTDL

Tests used:
[1] = test system: ER stressed superior cervical ganglia (SCG) sympathetic neurons; test: Survival of tunicamycin ER-stressed SCG neurons microinjected with expression plasmids; format: cell-based, mouse; conditions: expressed from microinjected plasmids; tunicamycin 2 μM; counted after three days
Description: (§1) Non-neuronal cells were removed by extensive preplating. Almost pure neurons were cultured in polyornithine/laminin (Sigma)-coated 35-mm plastic dishes in the small-size standard microislands in the Neurobasal medium and B27 supplement (Invitrogen/Gibco) in the presence of 30 ng/ml mouse nerve growth factor (NGF) (Promega) for 5-6 days. NGF was deprived by extensive washing and addition of the function-blocking anti-NGF antibodies (Roche). The neurons were pressure-microinjected with special neuronal microinjection equipment (Hellman et al., 2011; Hamner et al., 2001; Lindholm et al., 2002; Sun et al., 2001; Yu et al., 2003)(Sun et al., 2001; Sun et al., 2003). For the survival assay, all neurons on the microislands were counted in the beginning (initial number) and the end (three days) of the experiment and expressed as % of initial.
(§2) Microinjection of the sympathetic neurons was performed as described earlier (Yu, L. Y., Jokitalo, E., Sun, Y. F., Mehlen, P., Lindholm, D., Saarma, M., and Arumäe, U. (2003) J. Cell Biol. 163, 987-997). […] Next day tunicamycin (2 μM) was added, and after 3 days the living fluorescent neurons were counted. Living fluorescent (EGFP-expressing or Dextran Texas Red-containing) neurons were “blindly” counted three days later and expressed as percent of initial living fluorescent neurons counted 2-3 hours after microinjection. […]

ER stressed SCG neurons = test: Survival of tunicamycin ER-stressed SCG neurons microinjected with recombinant protein; format: cell-based, mouse; conditions: recombinant protein microinjected into the cytoplasm; tunicamycin 2 μM; counted after 3 days
Description: as §1, §2

[2] = test system: Huntington's disease rat model (quinolinic acid); test: Quinolinic acid Huntington's disease rat model, rotarod and grip strength; format: in vivo; conditions: single intrastriatal injection 2 weeks after QA, equimolar to CDNF 10 micrograms, vs QA+PBS
From the text: Adult Wistar rats received a single, unilateral intrastriatal injection of quinolinic acid (QA) 225 nmol into coordinates: A/P+0.7; L/M+2.8; D/V −6.0. Quinolinic acid is a toxin that induces striatal neuron death by an excitotoxic process. […] Rats were randomized to groups before the treatments started. Rotarod and grip strength tests were done weekly.

[3] = test system: rats in the 6-OHDA model of Parkinson's disease; conditions: applied before the toxin; cited from earlier work
E14 dopamine neurons = test: Internalization of iodinated proteins into dopamine neurons; format: cell-based, mouse; conditions: 30,000 cpm iodinated protein, 37° C., 2 hr, acid wash
Description: 2 hr. The cells were transferred to ice and washed once with 0.5 ml of the ice cold media. Then cells were transferred to Eppendorf tubes and washed at 4° C. once with 0.2M acetic acid, 0.5M NaCl, pH 2.8.

rat PC6 cells = test: Internalization of iodinated proteins into PC6.3 cells; format: cell-based; conditions: PC6 cells with or without thapsigargin, 90 min, acid wash
Description: Rat PC6.3 pheochromocytoma cells were grown on the 24 well plate in DMEM culture with 10% FCS and 5% horse serum. […] 90 min. The cells were put on ice, washed once with 0.5 ml of the ice cold media. Then cells were transferred to Eppendorf tubes and washed once with 0.2M acetic acid, 0.5M NaCl, pH 2.8. After centrifugation at 1000 g for 10 min cells were dissolved in 0.5 ml of 0.5 N NaOH and counted in Wizard 3 1480 Automatic Gamma Counter (Perkin Elmer, Wallac).

Molecule	living fluorescent neurons, percentage of initial neurons [1]	living fluorescent neurons, percentage of initial neurons (ER stressed SCG neurons)	rotarod latency to fall (motor behavior) [2]	6-OHDA-induced behavioral and histological symptoms [3]	radioactivity inside the cells (internalization) (E14 dopamine neurons)	radioactivity inside the cells (cell membrane penetration) (rat PC6 cells)
CDNF: cerebral dopamine neurotrophic factor; mature human CDNF, SEQ ID NO: 7, 161 amino acids	rescue ER stressed superior cervical ganglia (SCG) sympathetic neurons	rescue ER stressed SCG neurons	not CDNF improved motor behavior statistically significantly	potently prevent the 6-OHDA-induced behavioral and histological symptoms		
^125I-CDNF: full length CDNF iodinated with 125I-Na using the lactoperoxidase method					not ^125I-CDNF is efficiently internalized	not full length iodinated CDNF penetrate cell membrane
B1				potently prevent the 6-OHDA-induced behavioral and histological symptoms		
